Measurements as given in PMC12126525, “Mechanism of ATP hydrolysis in the Hsp70 BiP nucleotide-binding domain” (Nature Communications, 2025).
Entries after “also recorded” stand apart in the source; their conditions may differ.

Tests used:
BiP = conditions: NBD·MABA-ATP ⇌ NBD + MABA-ATP; cited from earlier work
BiP NBD [1] = target: T1, BiP NBD (Homo sapiens, UniProt P11021); assay: NMR experiment with MABA-ATP (no E1, no E2) and kinetic fit of the MABA-ATP/MABA-ADP functional cycle; format: biochemical; design: His6 (N, cleaved yes); made in house; host or cells: E. coli BL21-(DE3)-Lemo, pET28a vector; conditions: for species: Supplementary Fig 13b
Procedure: […] After the equilibration time 2D [^13C,^1H]-HMQC spectra were recorded in interleaved mode with 1D ^1H NMR spectra. […] The same setup was used for the alternative experiments by including or excluding E1 and/or E2. When E1 was not included, the ratio of the ATP/ADP NMR signals was used to monitor their relative concentrations.
(§1) (1 picture or pasted object on this page, not shown here)

Hsp70 = system: Hsp70; design: method as in PMID 8226982; conditions: optimal range of concentration between 100 and 150 mM; cited from earlier work
BiP NBD [2] = target: T1, BiP NBD; assay: Equilibrium 2D methyl-TROSY NMR fingerprint spectra with ligands (ATP analogs, calcium); format: binding; design: His6 (N, cleaved yes); made in house; host or cells: E. coli BL21-(DE3)-Lemo, pET28a vector; conditions: 2D methyl-TROSY compared with in-cyclo states
Procedure: First, we probed calcium binding to ADP-bound NBD by NMR equilibrium experiments. […] (Supplementary Fig. 15d). […] (Supplementary Fig. 16).
AMPPNP (adenylyl imidodiphosphate; Jena-bioscience), AMPPCP (adenylyl methylenediphosphate; Jena-bioscience) and ATP-γ-S (adenosine 5’-(gamma-thiotriphosphate; Jena-bioscience) were dissolved in the HKM reaction buffer (25 mM HEPES, pH 7.5, 150 mM KCl and 10 mM MgCl2) at a concentration of 50 mM directly before to be mixed with the BiP NBD sample. Samples were prepared fresh before each use to minimize the known instability of these analogs that undergo slow hydrolysis in solution.
Supplementary Figure 7. Analysis of the BiP NBD ATP-bound state. a, Combined methyl chemical shift differences between the APD·Pi-bound and the ATP-bound state of BiP NBD in-cyclo. The magnitude of 1 and 1.5 SDs are indicated by an orange and a red line, respectively. b, Overlay of 9 crystal structures of BiP NBD in presence of different nucleotides (colored sticks). c, Backbone root means square deviation (RMSD - Å) between the structures shown in (b) and the NBD apo state (PDB 3LDN). d, 2D [13C,1H]-TROSY spectrum of methyl-labeled BiP NBD in equilibrium with the ATP analogs AMPPNP (green), AMPPCP (orange) or ATP-γ-S (yellow), overlayed with the spectrum in-cyclo (pink).
State- and sequence-specific resonance assignments are indicated for the ADP-bound (light blue), ADP·Pi-bound (dark blue) and the ATP-bound (red) states in-cyclo.
as §1
Supplementary Figure 15. Mapping of calcium binding to BiP NBD. a, Selected details from published structures of BiP. From left to right: yeast BiP(NBD)-Mg2+-ADP (PDB 3QFU), human BiP(NBD)-Mg2+- ADP·Pi (PDB 5EVZ), human BiP(NBD)-Ca2+-ADP (PDB 6ZYH). b, Selected sections of 2D [13C,1H]-methyl-TROSY spectra of residue val50cg1 or Ile52cd1 for the equilibrium experiments of NBD apo (grey), NBD with 5 mM Pi (green), NBD with 1 mM ADP (light blue), NBD with 1 mM ADP·Pi (dark blue), NBD with 1 mM ADP-Ca2+ (dark-pink).and NBD with 3.3 mM calcium ([Mg2+]/[Ca2+]=3) (light-pink). c, Combined methyl chemical shift differences between the BiP NBD APD and the ADP-Ca2+-bound state. The magnitude of 1 and 1.5 SDs are indicated by a light blue and a dark blue line. d, Structure of NBD in […]
the ADP-Ca-bound state (PDB 6ZYH).

[3] = MABA-ATP instead of ATP, reactions 1MABA, 2MABA, 3

T1 sequence (P11021 19-406): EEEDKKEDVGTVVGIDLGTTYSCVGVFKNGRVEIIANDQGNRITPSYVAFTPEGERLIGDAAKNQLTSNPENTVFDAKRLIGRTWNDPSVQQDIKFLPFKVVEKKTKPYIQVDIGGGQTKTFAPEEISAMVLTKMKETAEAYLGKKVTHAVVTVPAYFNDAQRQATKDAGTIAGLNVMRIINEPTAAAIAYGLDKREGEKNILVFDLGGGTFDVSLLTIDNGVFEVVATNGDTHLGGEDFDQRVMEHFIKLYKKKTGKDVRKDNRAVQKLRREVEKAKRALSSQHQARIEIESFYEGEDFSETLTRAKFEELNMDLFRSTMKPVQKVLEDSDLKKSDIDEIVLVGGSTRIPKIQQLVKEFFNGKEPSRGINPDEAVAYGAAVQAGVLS

In the case of `CNc1ccccc1C(=O)NCCCCNc1nc2c(N)ncnc2n1[C@@H]1O[C@H](COP(=O)(O)OP(=O)(O)OP(=O)(O)O)[C@@H](O)[C@H]1O` [MABA-ATP, 8-[(4-Amino)butyl]-amino-ATP-MAN], the Kd (BiP) is given as 1000 nM, the “koff1 (MABA-ATP)” value (BiP) is given as 0.031 s⁻¹ and the kon (BiP) is given as 32000 M⁻¹ s⁻¹. For the same molecule, the koff (BiP NBD [1]; [3]) was 0.035 ± 0.008 s⁻¹, the kon (BiP NBD [1]; [3]) was 37000 ± 6000 M⁻¹ s⁻¹ and the Kd (BiP NBD [1]; MABA-ATP instead of ATP, reactions 1MABA, 2MABA, 3: release to apo NBD, T = 37°C) was 950 ± 100 nM. It also gave a kcat (BiP NBD [1]; NBD·MABA-ATP → NBD·MABA-ADP·Pi) of 0.036 s⁻¹.

For `[K+]` [potassium], the “increase of the Hsp70 ATP hydrolysis activity” value (Hsp70) is given as 5 fold.

In the case of `Nc1ncnc2c1ncn2[C@@H]1O[C@H](CO[P@](=O)(O)O[P@](=O)(O)O[P@@](=O)(O)S)[C@@H](O)[C@H]1O` [ATP-γ-S, adenosine 5’-(gamma-thiotriphosphate)], the “NMR fingerprint of BiP NBD with the ligand” value (shortened to “NMR fingerprint of BiP NBD”) (BiP NBD [2]) is reported as “resemble the ADP·Pi-bound state rather than the ATP-bound state; also recorded: showed a peak splitting, indicating the formation of a heterogenous mix of conformations”.

Molecule `CNc1ccccc1C(=O)NCCCCNc1nc2c(N)ncnc2n1[C@@H]1O[C@H](COP(=O)(O)OP(=O)(O)O)[C@@H](O)[C@H]1O` [MABAADP] has a species (BiP NBD [1]; time 4 min) of 350 µM, a species (BiP NBD [1]; time 10 min) of 508 µM and a species (BiP NBD [1]; time 16 min) of 626 µM. The species (BiP NBD [1]; time 22 min) was 712 µM, the species (BiP NBD [1]; time 28 min) was 800 µM and the species (BiP NBD [1]; time 34 min) was 840 µM. For the same molecule, the species (BiP NBD [1]; time 40 min) was 889 µM, the species (BiP NBD [1]; time 46 min) was 907 µM and the species (BiP NBD [1]; time 52 min) was 929 µM. It also gave a species (BiP NBD [1]; time 58 min) of 924 µM and a species (BiP NBD [1]; time 64 min) of 932 µM.

With `Nc1ncnc2c1ncn2[C@@H]1O[C@H](COP(=O)(O)OP(=O)(O)CP(=O)(O)O)[C@@H](O)[C@H]1O` [AMPPCP, adenylyl methylenediphosphate] the “NMR fingerprint of BiP NBD” value (BiP NBD [2]) was “resemble the ADP·Pi-bound state rather than the ATP-bound state”.

With `Nc1ncnc2c1ncn2[C@@H]1O[C@H](COP(=O)(O)OP(=O)(O)NP(=O)(O)O)[C@@H](O)[C@H]1O` [AMPPNP, adenylyl imidodiphosphate] the “NMR fingerprint of BiP NBD” value (BiP NBD [2]) was “resemble the ADP·Pi-bound state rather than the ATP-bound state”.
